Measured values: PubChem BioAssay (NCI)
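Dose response: 5 concentrations. Exposure: 48 h. Format: 96-well plates. Endpoint: linear interpolation; highest concentration if not reached. GI50 = concentration required for 50% inhibition of growth. TGI marks complete inhibition of growth.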

Experiments:
Assay in all cases: inhibition of tumour cell growth, NCI panel, 48 h
NCI-H460 lung = system: NCI-H460 lung
A549 NSCLC = system: A549 NSCLC
OVCAR-8 ovarian = system: OVCAR-8 ovarian
786-0 renal = system: 786-0 renal
OVCAR-5 ovarian = system: OVCAR-5 ovarian
OVCAR-3 ovarian = system: OVCAR-3 ovarian
UACC-257 melanoma = system: UACC-257 melanoma
SR leukemia = system: SR leukemia
UACC-62 melanoma = system: UACC-62 melanoma
MDA-MB-435 = system: MDA-MB-435

In the case of `O=S(=O)([O-])[O-].[OH3+].[OH3+].[OH3+].[Ru+2].c1ccccc1`, the GI50 (NCI-H460 lung) is reported as over 100 µM, the TGI (NCI-H460 lung) is reported as over 100 µM and the GI50 (A549 NSCLC) is reported as over 100 µM. For the same compound, the TGI (A549 NSCLC) was over 100 µM, the GI50 (OVCAR-8 ovarian) was over 100 µM and the TGI (OVCAR-8 ovarian) was over 100 µM. The GI50 (786-0 renal) was over 100 µM, the TGI (786-0 renal) was over 100 µM and the GI50 (OVCAR-5 ovarian) was over 100 µM. For the same compound, the TGI (OVCAR-5 ovarian) was over 100 µM, the GI50 (OVCAR-3 ovarian) was over 100 µM and the TGI (OVCAR-3 ovarian) was over 100 µM. The GI50 (UACC-257 melanoma) was over 100 µM and the TGI (UACC-257 melanoma) was over 100 µM.

`N#CC1=C(N)Oc2cc3c(cc2C1c1cccs1)OCO3` (configuration not stated) showed a GI50 (NCI-H460 lung) of 0.373 µM, a TGI (NCI-H460 lung) of 24.4 µM and a GI50 (A549 NSCLC) of 0.583 µM. It also gave a TGI (A549 NSCLC) of over 70.9 µM, a GI50 (OVCAR-8 ovarian) of 0.587 µM and a TGI (OVCAR-8 ovarian) of over 52.7 µM. It also gave a GI50 (786-0 renal) of 0.686 µM, a TGI (786-0 renal) of over 68.3 µM and a GI50 (OVCAR-5 ovarian) of 2.82 µM. It also gave a TGI (OVCAR-5 ovarian) of over 85.4 µM, a GI50 (OVCAR-3 ovarian) of 0.236 µM and a TGI (OVCAR-3 ovarian) of 0.644 µM. It also gave a GI50 (SR leukemia) of 0.27 µM, a TGI (SR leukemia) of over 100 µM and a GI50 (UACC-62 melanoma) of 0.485 µM. For the same compound, the TGI (UACC-62 melanoma) was over 100 µM, the GI50 (UACC-257 melanoma) was 0.502 µM and the TGI (UACC-257 melanoma) was over 100 µM.

With `CN(N=O)C(=O)Nc1c[nH]c(=O)[nH]c1=O` the TGI (A549 NSCLC) was over 100 µM, the TGI (OVCAR-8 ovarian) was over 100 µM and the TGI (786-0 renal) was over 100 µM. The TGI (OVCAR-5 ovarian) was over 100 µM, the TGI (OVCAR-3 ovarian) was over 100 µM and the TGI (UACC-62 melanoma) was over 100 µM. It also gave a TGI (UACC-257 melanoma) of over 100 µM and a TGI (MDA-MB-435) of over 100 µM.

With `CSC(=S)c1ccc(C(=S)SC)cc1` the TGI (NCI-H460 lung) was over 100 µM, the TGI (A549 NSCLC) was over 100 µM and the TGI (OVCAR-8 ovarian) was over 100 µM. It also gave a TGI (786-0 renal) of over 100 µM, a TGI (OVCAR-5 ovarian) of over 100 µM and a TGI (OVCAR-3 ovarian) of over 100 µM. It also gave a TGI (SR leukemia) of over 100 µM, a TGI (UACC-62 melanoma) of over 100 µM and a TGI (UACC-257 melanoma) of over 100 µM.

For `CCCc1c2c([nH]c(=O)c1C)C(=O)c1[nH]c(=O)c(C)c(CCC)c1C2=O`, the TGI (NCI-H460 lung) was 77.3 µM, the TGI (A549 NSCLC) was 72.7 µM and the TGI (OVCAR-8 ovarian) was 17.8 µM. It also gave a TGI (786-0 renal) of over 100 µM, a TGI (OVCAR-5 ovarian) of over 100 µM and a TGI (OVCAR-3 ovarian) of 5.97 µM. It also gave a TGI (SR leukemia) of 42.2 µM and a TGI (UACC-257 melanoma) of 6.99 µM.

`CCOC(=N)CC(=O)Nc1ccc(Cl)cc1` showed a TGI (NCI-H460 lung) of over 100 µM, a TGI (A549 NSCLC) of over 100 µM and a TGI (OVCAR-8 ovarian) of over 100 µM. It also gave a TGI (786-0 renal) of over 100 µM, a TGI (OVCAR-5 ovarian) of over 100 µM and a TGI (OVCAR-3 ovarian) of over 100 µM. For the same compound, the TGI (SR leukemia) was over 100 µM, the TGI (UACC-62 melanoma) was over 100 µM and the TGI (UACC-257 melanoma) was over 100 µM.

Compound `Oc1ccc2ccccc2c1C=NCCCN=Cc1c(O)ccc2ccccc12` has a GI50 (NCI-H460 lung) of 9.35 µM, a TGI (NCI-H460 lung) of over 100 µM and a GI50 (A549 NSCLC) of 32.1 µM. For the same compound, the TGI (A549 NSCLC) was over 100 µM, the GI50 (OVCAR-8 ovarian) was 32.4 µM and the TGI (OVCAR-8 ovarian) was over 100 µM. It also gave a GI50 (786-0 renal) of 17.4 µM, a TGI (786-0 renal) of 40.7 µM and a GI50 (OVCAR-5 ovarian) of 28.4 µM. It also gave a TGI (OVCAR-5 ovarian) of 81.4 µM, a GI50 (OVCAR-3 ovarian) of 3.31 µM and a TGI (OVCAR-3 ovarian) of 14.8 µM. For the same compound, the GI50 (UACC-62 melanoma) was 4.27 µM, the TGI (UACC-62 melanoma) was 16.8 µM and the GI50 (UACC-257 melanoma) was 21.7 µM. The TGI (UACC-257 melanoma) was over 100 µM, the GI50 (MDA-MB-435) was 10.8 µM and the TGI (MDA-MB-435) was 71.2 µM.

For `CN(C)c1ccc(-c2cc(=O)c3ccccc3[nH]2)cc1`, the TGI (NCI-H460 lung) was over 100 µM, the TGI (A549 NSCLC) was over 100 µM and the TGI (OVCAR-8 ovarian) was over 100 µM. It also gave a TGI (786-0 renal) of over 100 µM, a TGI (OVCAR-3 ovarian) of over 100 µM and a TGI (SR leukemia) of over 100 µM. It also gave a TGI (UACC-257 melanoma) of over 100 µM.

Work on `CCCCCCCCCCCCN1C(C)=CS/C1=C\C=C\c1scc(C)[n+]1CCCCCCCCCCCC` yielded a GI50 (NCI-H460 lung) of 1.43 µM, a TGI (NCI-H460 lung) of 3.51 µM and a GI50 (786-0 renal) of 2.17 µM. The TGI (786-0 renal) was 7.37 µM, the GI50 (OVCAR-5 ovarian) was 2.3 µM and the TGI (OVCAR-5 ovarian) was 9.43 µM. It also gave a GI50 (OVCAR-3 ovarian) of 1.24 µM, a TGI (OVCAR-3 ovarian) of 3.69 µM and a GI50 (SR leukemia) of 1.12 µM. For the same compound, the TGI (SR leukemia) was over 100 µM, the GI50 (UACC-62 melanoma) was 1.1 µM and the TGI (UACC-62 melanoma) was 3.41 µM. The GI50 (UACC-257 melanoma) was 1.72 µM, the TGI (UACC-257 melanoma) was 5.68 µM and the GI50 (MDA-MB-435) was 1.21 µM. The TGI (MDA-MB-435) was 3.68 µM.
